Data: patent US20030215352A1, “Method of controlling microbial contamination” (Church & Dwight Co., Inc., priority 2002, published 2003)
Where two headings read alike, the source gives them in different places.

Tests used:
Details in all cases: 25° C.
S. aureus = tested on: S. aureus
Procedure: (§1) Absorbent products, of 2 in.×2 in., weighing about 1 gram each, and being of identical construction except that 0%, 2%, 4%, 6%, 8%, 10% and 12% (per gram of product) of sodium bicarbonate was incorporated therein are used for this example. […] Two ml of sterile water was added to each product. Each product was then inoculated with 0.1 ml of one of a bacterium or fungus selected from S. aureus (6.9×10^5 CFU/ml), E. coli (5.4×10^5 CFU/ml), P. aeruginosa (6.9×10^5 CFU/ml), and C. albicans (5×10^5 CFU/ml). Each inoculated product was incubated at 25° C. and kept moist in a petri dish. Microbial numbers were determined on days 7 and 14 Microbial numbers were determined by removing the product from the petri dish and placed in a bag with 9 ml of neutralizer broth, mixed and plated on Leethan Agar. These plates were then incubated for 48-72 hours at 30° C. and colonies on the plates were counted.

P. aeruginosa = tested on: P. aeruginosa
Procedure: as §1

E. coli = tested on: E. coli
Procedure: as §1

C. albicans = tested on: C. albicans
Procedure: as §1

[1] = Day 7, 2% sodium bicarbonate in absorbent product
[2] = Day 7, 4% sodium bicarbonate in absorbent product
[3] = Day 7, 6% sodium bicarbonate in absorbent product
[4] = Day 7, 8% sodium bicarbonate in absorbent product
[5] = Day 7, 10% sodium bicarbonate in absorbent product
[6] = Day 7, 12% sodium bicarbonate in absorbent product
[7] = Day 14, 2% sodium bicarbonate in absorbent product
[8] = Day 14, 4% sodium bicarbonate in absorbent product
[9] = Day 14, 6% sodium bicarbonate in absorbent product
[10] = Day 14, 8% sodium bicarbonate in absorbent product
[11] = Day 14, 10% sodium bicarbonate in absorbent product
[12] = Day 14, 12% sodium bicarbonate in absorbent product

O=C([O-])O.[Na+] [Sodium Bicarbonate, sodium bicarbonate]
Colony Forming Units/ml S. aureus (S. aureus; [1]): <10 Colony Forming Units/ml | Colony Forming Units/ml S. aureus (S. aureus; [2]): <10 Colony Forming Units/ml | Colony Forming Units/ml S. aureus (S. aureus; [3]): <10 Colony Forming Units/ml | Colony Forming Units/ml S. aureus (S. aureus; [4]): <10 Colony Forming Units/ml | Colony Forming Units/ml S. aureus (S. aureus; [5]): 5 Colony Forming Units/ml | Colony Forming Units/ml S. aureus (S. aureus; [6]): <10 Colony Forming Units/ml | Colony Forming Units/ml S. aureus (S. aureus; [7]): <10 Colony Forming Units/ml | Colony Forming Units/ml S. aureus (S. aureus; [8]): <10 Colony Forming Units/ml | Colony Forming Units/ml S. aureus (S. aureus; [9]): <10 Colony Forming Units/ml | Colony Forming Units/ml S. aureus (S. aureus; [10]): 10 Colony Forming Units/ml | Colony Forming Units/ml S. aureus (S. aureus; [11]): <10 Colony Forming Units/ml | Colony Forming Units/ml S. aureus (S. aureus; [12]): <10 Colony Forming Units/ml | Colony Forming Units/ml P. aeruginosa (P. aeruginosa; [1]): <10 Colony Forming Units/ml | Colony Forming Units/ml P. aeruginosa (P. aeruginosa; [2]): <10 Colony Forming Units/ml | Colony Forming Units/ml P. aeruginosa (P. aeruginosa; [3]): 50 Colony Forming Units/ml | Colony Forming Units/ml P. aeruginosa (P. aeruginosa; [4]): 150 Colony Forming Units/ml | Colony Forming Units/ml P. aeruginosa (P. aeruginosa; [5]): <10 Colony Forming Units/ml | Colony Forming Units/ml P. aeruginosa (P. aeruginosa; [6]): <10 Colony Forming Units/ml | Colony Forming Units/ml P. aeruginosa (P. aeruginosa; [7]): 15 Colony Forming Units/ml | Colony Forming Units/ml P. aeruginosa (P. aeruginosa; [8]): <10 Colony Forming Units/ml | Colony Forming Units/ml P. aeruginosa (P. aeruginosa; [9]): <10 Colony Forming Units/ml | Colony Forming Units/ml P. aeruginosa (P. aeruginosa; [10]): <10 Colony Forming Units/ml | Colony Forming Units/ml P. aeruginosa (P. aeruginosa; [11]): <10 Colony Forming Units/ml | Colony Forming Units/ml P. aeruginosa (P. aeruginosa; [12]): <10 Colony Forming Units/ml | Colony Forming Units/ml E. coli (E. coli; [1]): <10 Colony Forming Units/ml | Colony Forming Units/ml E. coli (E. coli; [2]): <10 Colony Forming Units/ml | Colony Forming Units/ml E. coli (E. coli; [3]): <10 Colony Forming Units/ml | Colony Forming Units/ml E. coli (E. coli; [4]): <10 Colony Forming Units/ml | Colony Forming Units/ml E. coli (E. coli; [5]): <10 Colony Forming Units/ml | Colony Forming Units/ml E. coli (E. coli; [6]): <10 Colony Forming Units/ml | Colony Forming Units/ml E. coli (E. coli; [7]): <10 Colony Forming Units/ml | Colony Forming Units/ml E. coli (E. coli; [8]): <10 Colony Forming Units/ml | Colony Forming Units/ml E. coli (E. coli; [9]): <10 Colony Forming Units/ml | Colony Forming Units/ml E. coli (E. coli; [10]): <10 Colony Forming Units/ml | Colony Forming Units/ml E. coli (E. coli; [11]): <10 Colony Forming Units/ml | Colony Forming Units/ml E. coli (E. coli; [12]): <10 Colony Forming Units/ml | Colony Forming Units/ml C. albicans (C. albicans; [1]): 1,800 Colony Forming Units/ml | Colony Forming Units/ml C. albicans (C. albicans; [2]): 5 Colony Forming Units/ml | Colony Forming Units/ml C. albicans (C. albicans; [3]): <10 Colony Forming Units/ml | Colony Forming Units/ml C. albicans (C. albicans; [4]): 70 Colony Forming Units/ml | Colony Forming Units/ml C. albicans (C. albicans; [5]): <10 Colony Forming Units/ml | Colony Forming Units/ml C. albicans (C. albicans; [6]): 30 Colony Forming Units/ml | Colony Forming Units/ml C. albicans (C. albicans; [7]): 15 Colony Forming Units/ml | Colony Forming Units/ml C. albicans (C. albicans; [8]): 450 Colony Forming Units/ml | Colony Forming Units/ml C. albicans (C. albicans; [9]): <10 Colony Forming Units/ml | Colony Forming Units/ml C. albicans (C. albicans; [10]): 3000 Colony Forming Units/ml | Colony Forming Units/ml C. albicans (C. albicans; [11]): <10 Colony Forming Units/ml | Colony Forming Units/ml C. albicans (C. albicans; [12]): <10 Colony Forming Units/ml
